The test system of data set [1] is THLE-2 cells. In words: THLE-2 cytotoxicity assay (ATP). The conditions noted are these: for pIC50: Homo sapiens; for THLE (cytotoxicity) ATP LC50: THLE-2 cell line. The gist of the method: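 THLE-2 cells in supplemented LHC-8 medium were exposed for 24 or 72 h to final concentrations of 0.01–300 μM. Viability was read as ATP by CellTiter-Glo luminescence and normalized to DMSO vehicle. IC50 came from nonlinear regression of dose-response curves.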

In data set [2] the test system is O. gutturosa adult male worms. Kind of data set: O. gutturosa adult worm ex vivo assay, MTT/formazan viability. It counts as cell-based, Onchocerca gutturosa. The conditions noted are these: supplement, SD in brackets in the PDF table, read-out: O. gutturosa EC50 (uM) MTT viability inhibition. The gist of the method: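 Adult male worms from naturally infected Gambian cattle were kept individually in MEM with 10% newborn calf serum at 37 °C, 5% CO2; four worms per concentration. Motility was scored 0-10 every 24 h to 120 h as a percentage of maximum, with ≥50% reduction versus untreated counted active. Afterwards, MTT (0.5 mg/mL, 30 min) formazan was read at 490 nm.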

Data set [3] has as its system O. gutturosa adult male worms. Kind of data set: O. gutturosa adult worm ex vivo assay, motility. It counts as cell-based, Onchocerca gutturosa. The conditions noted are these: Onchocerca gutturosa; for pEC50: read-out: O. gutturosa EC50, adult worm motility, bound stated. Summed up: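 Adult male O. gutturosa from naturally infected cattle were cultured in supplemented MEM at 37 °C, 5% CO2, with four worms per concentration in serial 1-in-4 dilutions. Motility (0–10 scale) was scored every 24 h to 120 h. EC50 (geomean, n=2) for motility reduction came from 4PL fits, and viability was checked by MTT at 120 h.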

Data set [4] is described as follows: Kinetic solubility measurement. It counts as physicochemical. The conditions noted are these: 10 mM DMSO stock solutions. The gist of the method:
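Human and rat liver microsomes (0.3 mg/mL) with 1 mM NADPH and 3µM substrate, 30 minutes at 37 °C in pH 7.4 phosphate/MgCl2, triplicate; LC-MS/MS percentage remaining. LogD: octanol/aqueous buffer (pH 7.4, 2.2, 6.8, 5), 24 h shaking at room temperature. Kinetic solubility: 200 µM, 2% DMSO, 24 h, filtered.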

The mark [5] stands for this setting: THLE-2, 24 h, read-out: THLE IC50.
[6] abbreviates: read-out: O. gutturosa EC50 μM (SD), ex vivo adult worm motility reduction, SD in brackets.
[7] abbreviates: read-out: O. gutturosa EC50 (uM) motility inhibition, supplement, SD in brackets in the PDF table.

pEC50, pIC50: −log10 of the molar value. ≈ marks a conversion by molar mass, not a printed value. Like-named read-outs stand apart in the source and are kept apart here.

With `Cc1cccnc1Nc1nc(-c2ccc(OC(C)C)cn2)ns1` [Compound 10, 3-(5-Isopropoxypyridin-2-yl)-N-(3-methylpyridin-2-yl)-1,2,4-thiadiazol-5-amine], the pIC50 in data set [1] (setting [5]) is 4.42. For the same compound, the EC50 in data set [2] (Onchocerca gutturosa) worked out at 0.01 µM; in data set [2] it was 0.013 µM; in data set [3] (setting [6]), 0.06 µM; in data set [3] (setting [7]) it was 0.055 µM. In addition, in data set [3], the pEC50 was over 7.00. Besides, the kinetic solubility at 24 h in data set [4] came out at 3.2 µM (≈ 1.05 µg/mL).

`Cc1cccnc1Nc1nc(-c2ccc(OC3CC3)cn2)ns1` [Compound 11, 3-(5-Cyclopropoxypyridin-2-yl)-N-(3-methylpyridin-2-yl)-1,2,4-thiadiazol-5-amine]: in data set [1] (setting [5]), the pIC50 is under 3.70. Besides, the EC50 in data set [2] (Onchocerca gutturosa) is 0.02 µM; in data set [3] (setting [6]) it was 0.11 µM; in data set [3] (setting [7]), 0.106 µM. In data set [4], this compound gave a kinetic solubility at 24 h of 1.84 µM (≈ 0.599 µg/mL).

`Cc1cccnc1Nc1nc(-c2ccc(OC3CC4(C3)CN(C3CC3)C4)cn2)ns1` [Compound 12, 3-[5-[(2-Cyclopropyl-2-azaspiro[3.3]heptan-6-yl)oxy]-2-pyridyl]-N-(3-methyl-2-pyridyl)-1,2,4-thiadiazol-5-mine]: in data set [1] (THLE-2, read-out: THLE IC50), the pIC50 is 5.28. Further, the EC50 in data set [2] (Onchocerca gutturosa) was 0.03 µM; in data set [2] it was 0.033 µM; in data set [3] (setting [6]) it was 0.39 µM; in data set [3] (setting [7]) it was 0.393 µM. The compound also had a kinetic solubility at 24 h in data set [4] of 13.1 µM (≈ 5.5 µg/mL).

Take `Cc1cccnc1Nc1nc(-c2ccc(OC3CCN(C4CC4)CC3)cn2)ns1` [Compound 19, 3-[5-[(1-Cyclopropyl-4-piperidyl)oxy]-2-pyridyl]-N-(3-methyl-2-pyridyl)-1,2,4-thiadiazol-5-amine]: the pIC50 in data set [1] (setting [5]) is 3.92. Further, the EC50 in data set [2] (Onchocerca gutturosa) stood at 0.19 µM; in data set [3] (setting [6]), 0.06 µM; in data set [3] (setting [7]), 0.064 µM. Also, the kinetic solubility at 24 h in data set [4] amounted to 3.05 µM (≈ 1.25 µg/mL).

For the compound `CC(C)Oc1ccc(-c2nsc(Nc3ncccc3C(C)C)n2)nc1` [Compound 25, 3-(5-Isopropoxy-2-pyridyl)-N-(3-isopropyl-2-pyridyl)-1,2,4-thiadiazol-5-amine], in data set [1] (THLE-2, read-out: THLE IC50), the pIC50 is 5.49. Moreover, the EC50 in data set [2] (Onchocerca gutturosa) was determined as 0.54 µM; in data set [3] (setting [6]) it was 0.1 µM; in data set [3] (setting [7]), 0.099 µM. In data set [4], this compound yielded a kinetic solubility at 24 h of 2.58 µM (≈ 0.917 µg/mL).

In the case of `Cc1ccnc(-c2nsc(Nc3ncccc3C(F)(F)F)n2)c1` [Compound 26, 3-(4-Methylpyridin-2-yl)-N-(3-(trifluoromethyl)pyridin-2-yl)-1,2,4-thiadiazol-5-amine], the pIC50 in data set [1] (setting [5]) was 4.18. For the same compound, the EC50 is 0.07 µM in data set [2] (Onchocerca gutturosa), 0.069 µM in data set [2], 0.03 µM in data set [3] (setting [6]) and 0.029 µM in data set [3] (setting [7]). The solubility (kinetic) at 24 h in data set [4] was found to be 0.9 µM (≈ 0.304 µg/mL).

For the compound `CC(C)c1ccnc(-c2nsc(Nc3ncccc3C(F)(F)F)n2)c1` [Compound 27], the EC50 worked out at 0.07 µM in data set [2] (Onchocerca gutturosa), 0.069 µM in data set [2] and 0.01 µM in data set [3] (setting [6]). For the same compound, the pEC50 in data set [3] was over 7.00. Moreover, the solubility (kinetic) at 24 h in data set [4] was 1.6 µM (≈ 0.585 µg/mL).

Take `CNc1cccnc1Nc1nc(-c2ccc(OC(C)C)cn2)ns1` [Compound 30]: in data set [1] (THLE-2, read-out: THLE IC50), the pIC50 was 4.76. In addition, the EC50 was determined as 0.59 µM in data set [2] (Onchocerca gutturosa), 0.22 µM in data set [3] (setting [6]) and 0.219 µM in data set [3] (setting [7]). Also, the solubility (kinetic) at 24 h in data set [4] amounted to 1.9 µM (≈ 0.651 µg/mL).

As for `CC(C)Oc1ccc(-c2nsc(Nc3ncccc3N(C)C)n2)nc1` [Compound 31, N^2-(3-(5-Isopropoxypyridin-2-yl)-1,2,4-thiadiazol-5-yl)-N3,N3-dimethylpyridine-2,3-diamine], the pIC50 in data set [1] (setting [5]) was 4.44. Moreover, the “THLE (cytotoxicity) ATP LC50” value in data set [1] was “did not exhibit significant cellular cytotoxity”. Further, the figures for the EC50 in data set [2] (Onchocerca gutturosa), in data set [3] (setting [6]) and in data set [3] (setting [7]) were 0.24 µM, 0.08 µM and 0.083 µM, respectively. For the same compound, in data set [4], the solubility (kinetic) at 24 h was 22.5 µM (≈ 8.02 µg/mL).

In the case of `CN(C)c1cccnc1Nc1nc(-c2ccc(OC3CC3)cn2)ns1` [Compound 32], the pIC50 in data set [1] (THLE-2, read-out: THLE IC50) was 6.10. Further, the EC50 in data set [2] (Onchocerca gutturosa) came to 0.56 µM; in data set [3] (setting [6]) it was 0.74 µM; in data set [3] (setting [7]), 0.743 µM. This compound also showed a solubility (kinetic) at 24 h in data set [4] of 8.92 µM (≈ 3.16 µg/mL).

As for `CC(C)c1ccnc(-c2nsc(Nc3cc(C(F)(F)F)ccn3)n2)c1` [Compound 35, 3-(4-Isopropylpyridin-2-yl)-N-(4-(trifluoromethyl)pyridin-2-yl)-1,2,4-thiadiazol-5-amine], the negative-log IC50 (pIC50) in data set [1] (THLE-2, read-out: THLE IC50) was 5.64. The EC50 turned out to be 0.15 µM in data set [2] (Onchocerca gutturosa) and 0.05 µM in data set [3] (setting [6]). The compound also displayed a solubility (kinetic) at 24 h in data set [4] of under 1 µM.

Turning to `CC(=O)N(C)c1cccnc1Nc1nc(-c2ccc(OC(C)C)cn2)ns1` [Compound 47, N-(2-((3-(5-Isopropoxypyridin-2-yl)-1,2,4-thiadiazol-5-yl)amino)pyridin-3-yl)-N-methylacetamide], the “THLE (cytotoxicity) ATP LC50” value in data set [1] is listed as “did not exhibit significant cellular cytotoxity”. For the same compound, the results for the concentration for a half-maximal effect (EC50) in data set [2] (Onchocerca gutturosa) and in data set [3] (setting [6]) were 1.9 µM and 1.07 µM, respectively. This compound also showed a solubility (kinetic) at 24 h in data set [4] of 109 µM (≈ 41.9 µg/mL).

Consider `CC(C)Oc1ccc(-c2nsc(Nc3ncccc3N(C)C(=O)C3CC3)n2)nc1` [Compound 50, N-(2-((3-(5-Isopropoxypyridin-2-yl)-1,2,4-thiadiazol-5-yl)amino)pyridin-3-yl)-N-methylcyclopropanecarboxamide], for which the pIC50 in data set [1] (THLE-2, read-out: THLE IC50) is 5.13. The EC50 came out at 2.3 µM in data set [2] (Onchocerca gutturosa), 0.56 µM in data set [3] (setting [6]) and 0.55 µM in data set [3] (setting [7]). Also, the solubility (kinetic) at 24 h in data set [4] was found to be 2.71 µM (≈ 1.11 µg/mL).
